Laboratory results taken from paper PMC10377586 (Biomolecules, 2023).

Key:
human MAO-A = biological target: T1, human MAO-A (Homo sapiens, UniProt P21397); assay: Amplex Red monoamine oxidase assay, MAO-A; format: biochemical
T1 construct: purchased Sigma Aldrich M7316
T1 sequence (P21397 1-527): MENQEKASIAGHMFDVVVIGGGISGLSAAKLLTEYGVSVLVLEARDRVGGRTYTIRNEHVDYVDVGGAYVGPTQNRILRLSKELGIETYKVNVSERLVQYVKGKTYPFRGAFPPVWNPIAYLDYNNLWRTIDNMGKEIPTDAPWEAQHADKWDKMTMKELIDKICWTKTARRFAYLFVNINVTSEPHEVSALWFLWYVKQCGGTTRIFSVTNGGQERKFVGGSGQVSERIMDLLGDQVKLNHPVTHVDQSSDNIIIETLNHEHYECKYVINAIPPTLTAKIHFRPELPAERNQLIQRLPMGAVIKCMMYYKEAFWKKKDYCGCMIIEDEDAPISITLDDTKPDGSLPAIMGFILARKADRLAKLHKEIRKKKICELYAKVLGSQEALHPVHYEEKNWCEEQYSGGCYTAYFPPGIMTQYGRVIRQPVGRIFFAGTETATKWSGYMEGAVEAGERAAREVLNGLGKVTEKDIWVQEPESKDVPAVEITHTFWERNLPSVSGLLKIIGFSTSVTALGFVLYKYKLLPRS
Procedure: The final compounds were evaluated in vitro for their human MAO-B (hMAO-B) inhibitory potencies, and selected structures were also investigated for human MAO-A (hMAO-A) inhibition.
Inhibition activity of compounds at MAO enzyme isoforms was measured via a fluorometric method using the Amplex Red Monoamine Oxidase Assay (ThermoFisher Scientific, Waltham, MA, USA #A12214) in a 96-well plates. Human recombinant MAO-B and MAO-A enzymes (Sigma Aldrich, St. Louis, MO, USA #M7441 and #M7316) were used. The assays were conducted as previously described.

rat A1 (rA1) ARs = biological target: T2, rat A1 (rA1) ARs (Rattus norvegicus, UniProt P25099); assay: Radioligand binding [3H]CCPA, rat brain cortical membranes; details: read-out: rA1 [3H]CCPA Ki ± SEM
T2 construct: using rat brain cortical membrane preparations for A1; tissue Pel Freez; host or cells: rat brain cortex membranes
T2 sequence (P25099 1-326): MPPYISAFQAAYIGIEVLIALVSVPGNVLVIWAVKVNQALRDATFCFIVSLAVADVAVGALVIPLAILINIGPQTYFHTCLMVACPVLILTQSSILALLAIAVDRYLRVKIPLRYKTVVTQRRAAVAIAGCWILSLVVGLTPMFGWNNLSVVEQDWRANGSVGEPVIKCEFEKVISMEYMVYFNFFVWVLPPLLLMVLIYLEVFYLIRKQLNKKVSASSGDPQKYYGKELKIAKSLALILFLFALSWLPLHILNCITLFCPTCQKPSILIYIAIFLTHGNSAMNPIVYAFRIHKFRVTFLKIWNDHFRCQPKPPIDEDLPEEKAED
Procedure: The final compounds were tested in radioligand binding assays to evaluate their affinity for all four ARs subtypes (see Table 2). Rat brain cortical membrane preparations were used as a source of rat A1 (rA1) ARs, and rat brain striatal membrane preparations served as a source of rat A2A (rA2A) ARs. For A2B- and A3AR assays, membrane preparations of Chinese hamster ovary (CHO) cells recombinantly expressing either human A2B (hA2B) or human A3 (hA3) ARs were employed.
Adenosine receptor radioligand binding assays were performed as previously described using rat brain cortical membrane preparations for A1 and rat brain striatal membrane preparations for A2A AR assays. Frozen rat brains (unstripped) were obtained from Pel Freez, Rogers, AR, USA. For assays at human AR subtypes, cell membranes of CHO cells recombinantly expressing the respective receptor were used. The following compounds were employed as radioligands: A1: [^3H]2-chloro-N^6-cyclopentyladenosine ([^3H]CCPA); A2A: [^3H]3-(3-hydroxypropyl)-7-methyl-8-(m-methoxystyryl)-1-propargylxanthine ([^3H]MSX-2); A2B: [^3H]8-(4-(4-(4-chlorophenyl)piperazine-1-sulfonyl)phenyl)-1-propylxanthine ([^3H]PSB-603); A3: [^3H]phenyl-8-ethyl-4-methyl-(8R)-4,5,7,8-tetrahydro-1H-imidazo[2,1-i]purine-5-one ([^3H]PSB-11). Initially, a single high concentration of compound was tested (1 µM). For potent compounds, full concentration–inhibition curves were determined using six to ten different concentrations of test compound spanning three orders of magnitude. At least three independent experiments were performed. Data were analyzed using GraphPad PRISM program version 4.0 or higher (Graph Pad, San Diego, CA, USA).

human D2L receptor = human D2L receptor (Homo sapiens, UniProt P14416); assay: Radioligand binding [3H]-raclopride, HEK293 membranes; details: HEK293 cells, human D2; read-out: hD2 [3H]-Raclopride Ki ± SEM
human D2L receptor, sequence (P14416 whole entry): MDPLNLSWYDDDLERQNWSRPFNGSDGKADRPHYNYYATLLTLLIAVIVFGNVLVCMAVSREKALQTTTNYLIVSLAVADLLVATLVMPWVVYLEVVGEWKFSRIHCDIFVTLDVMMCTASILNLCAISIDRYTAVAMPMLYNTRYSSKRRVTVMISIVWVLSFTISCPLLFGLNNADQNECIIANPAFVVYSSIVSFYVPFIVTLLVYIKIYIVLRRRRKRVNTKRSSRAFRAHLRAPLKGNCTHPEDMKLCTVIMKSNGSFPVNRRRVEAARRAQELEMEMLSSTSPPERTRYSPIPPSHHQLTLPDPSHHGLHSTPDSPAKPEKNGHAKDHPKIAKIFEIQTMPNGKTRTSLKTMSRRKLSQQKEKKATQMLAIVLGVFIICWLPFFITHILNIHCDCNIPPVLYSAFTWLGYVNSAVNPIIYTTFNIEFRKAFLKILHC
Procedure: Rat brain cortical membranes were used as source of native rat D1 receptor protein, and human D2 receptor was recombinantly expressed in HEK293 cells.
HEK293 cells with stable expression of human D2L receptor were maintained at 37 °C in a humidified atmosphere with 5% CO2 and grown in Dulbecco’s Modifier Eagle Medium containing 10% dialyzed fetal bovine serum and 500 µg/mL G418 sulfate. For membrane preparation, cells were subcultured in 150 cm^2 flasks, grown to 90% confluence, washed twice with prewarmed to 37 °C phosphate buffered saline (PBS), and pelleted by centrifugation (200× g) in PBS containing 0.1 mM EDTA and 1 mM dithiothreitol. Prior to membrane preparation, pellets were stored at −80 °C.
Cell pellets were thawed and homogenized in 10 volumes of assay buffer using an Ultra Turrax tissue homogenizer and centrifuged twice at 35,000× g for 15 min at 4 °C. The incubation buffer consisted of 50 mM Tris-HCl, 1 mM EDTA, 4 mM MgCl2, 120 mM NaCl, 5 mM KCl, 1.5 mM CaCl2, and 0.1% ascorbate. Assay was incubated in a total volume of 200 µL in 96-well microtiter plate for 1 h at 37 °C. The process of equilibration was terminated by rapid filtration through Unifilter plate with a 96-well cell harvester and radioactivity retained on the filter was quantified on a Microbeta plate reader (PerkinElmer). For competition studies, the assay samples contained radioligand 2.5 nM [^3H]-raclopride (PerkinElmer). Non-specific binding was defined with 10 µM of haloperidol. Each compound was tested in triplicate at 7 concentrations (10^−10–10^−4 M). The inhibition constants (Ki) were calculated from the Cheng–Prusoff equation [66]. Results were expressed as means of at least two separate experiments.

CCCCn1c(=O)c2c(nc3n2CCCN3CCc2ccc(O)c(O)c2)n(CCCC)c1=O [Compound 22, 1,3-Dibutyl-9-(3,4-dihydroxyphenethyl)-6,7,8,9-tetrahydropyrimido[2,1-f]purine-2,4(1H,3H)-dione]
IC50 (human MAO-A; human recombinant MAO-A, read-out: MAO-A IC50 ± SEM): > 1000 nM
inhibition at 1 µM (human MAO-A; read-out: MAO-A % Inhibition ± SEM at 1 µM): 43%
Ki (rat A1 (rA1) ARs): 53 ± 8 nM
Ki (human D2L receptor): 16600 ± 2300 nM
